System: human PASMCs from PAH patients
Experiment: Cyclic AMP assay
Type: cell-based
Description: Human PASMCs from PAH patients were grown to 70-80% confluence in 12 well plates in DMEM/F12 containing 9% foetal bovine serum (FBS), penicillin (50 U/ml)/streptomycin (50 ag/ml). To assess the time-course of cAMP elevation, cells were stimulated with 100 nM ralinepag for varying times (0.5, 1, 2, 4, 8, 24, 48 hours). This dose of ralinepag was chosen on the basis that it was close to the EC50 for cAMP generation in preliminary experiments. In other experiments, the IP receptor agonist was added for a specified time (60 minutes) over a full concentration range (0.1-10,000 nM) in the absence and presence of […] of the IP receptor antagonist, RO-1138452. The antagonist is added 30 minutes beforehand and remained throughout.
To extract cyclic AMP, the medium was aspirated and PASMCs cells incubated in 0.1 M HCl for 20 minutes on ice followed by centrifugation at 1000 g for 10 minutes at 4° C. The protein concentration in the supernatant was determined using a […] protein assay (BCA, Novagen, EmD Chemicals, CA, USA). Intracellular cyclic AMP was measured using a competitive enzyme immunoassay 96 well plate kit (ADI-900-163, Enzo Life Sciences, Exeter, UK) and the assay performed according to the manufacturer's instructions. Each sample was run in duplicate and data expressed as pmol of cAMP per mg of total protein for each individual sample. Basal levels were subtracted from each agonist concentration data point. Given the large variation (˜15-fold) in cAMP generation from different patient samples, data was also normalized to the peak cyclic AMP response (assigned 100%) in each cell isolate.

SMILES: O=C(O)COC[C@H]1CC[C@H](COC(=O)N(c2ccccc2)c2ccc(Cl)cc2)CC1 [ralinepag, 2-(((1r,4r)-4-(((4-chlorophenyl)(phenyl)carbamoyloxy)methyl)cyclohexyl)methoxy)acetic acid]
- EC50 (Homo sapiens, PASMC, preliminary experiments, read-out: EC50 for cAMP generation): ~100 nM
- maximal effect compared with treprostinil (cyclic AMP assay): weaker maximal effects
- fold more cyclic AMP than MRE-269 (ralinepag vs MRE-269): 2 fold

Reference: patent US12377067B2, “Methods of treating PAH with combinations of ralinepag and other agents” (Arena Pharmaceuticals, Inc., priority 2016, dated 2025)
